Here are results for eleven compounds from patent US4956463A, “Pyrimidone compound and pharmaceutically acceptable salts thereof” (Ikeda Mohando Company, Ltd., priority 1987, dated 1990).

The structures appear in SMILES notation. Like-named read-outs stand apart in the source and are kept apart here.

One experiment relates to Ethanol-Induced Ulcer. The experiment can be described thus: Inhibitory Effect on Ethanol-Induced Ulcer. The format is in vivo, male Wister rats. The following applies: for inhibition in vivo at 30 mg/kg: Rattus norvegicus, po, 1 h, read-out: I.R. of Ethanol-Induced Ulcer. How it is done: (B) Inhibitory Effect of the Compounds of the Present Invention on Ethanol-Induced Ulcer
This test was performed in the manner similar to the method of Robert A. (Gastroenterology, 1975, Vol. 69, pp. 1045-1047). 30 mg/kg of the compound of this invention was orally administered to male Wister rats having a body weight of about 160 g after 24 hours fasting and after additional 30 minutes, 1 ml/animal of 100% ethanol was orally administered One hour after, the stomach was dissected out and was fixed with formalin, Then, the length of the hemorrhagic ulcers generated at the front portion of the stomach was measured by means of a microscope and these were defined as the coefficient of ulcer (U.C.). [formula]
The results obtained are listed in Table II in which the values found are expressed in the average of 5 measurements.

The test system of experiment [1] is Gastric Acid Secretion Accelerated by Histamine in Pylorus-ligated Rats. Nature of the experiment: Inhibitory Effect on Gastric Acid Secretion by Histamine in Pylorus-ligated Rats. The class given is in vivo, male Wister rat. The following applies: dose 2 mg/kg s.c.; histamine 3 mg/kg s.c. 30 min later; average of 5 measurements; ** P < 0.01 vs control group (all values marked **). As for the experimental part:
A male Wister rat having a body weight of about 160 g and which had not fed for 24 hours was anesthetized by an intraperitonea dose of 1.2 g/kg of urethane. After ligating of pylorus and esophagus, gaster anterior was incised and fitted with a double polyethylene wall cannula. The wall of the stomach was rinsed with saline (5 ml each) at 30 minutes intervals, and the amount of gastric acid present in the rinsing solution were determined by titration technique.
The basal amount of secreted gastric acid was initially measured three times, then 2 mg/kg of each of compounds of the invention was administered subcutaneously and 3 mg/kg of histamine was subcutaneously administered after the lapse of an additional 30 minutes.
The quantity of gastric acid secreted after the operation was measured continuously for 3 hours. Within that measurement interval, three time points at which the increase in acid secretion reached a maximum level were selected, and the average quantity of gastric acid secreted at those time points was taken as the increase in acid secretion, which was compared with the increase in acid secretion of the control group to calculate the percent inhibition for secretion of gastric acid. [formula]

The mark [2] stands for this setting: 30 mg/kg p.o., 100% ethanol 1 ml/animal p.o. 30 min later, average of 5 measurements, ** P < 0.01 vs control group (Ex. 18 and Cimetidine unmarked).

With `CCCCCCCCCCCCc1c(C)[nH]c(NC/C=C\COc2cccc(CN3CCCCC3)c2)nc1=O` [Ex. 10, 5-Dodecyl-6-methyl-2-[4-<3-(1-piperidinomethyl)-phenoxy>-cis-2-butenylamino]-4-(1H)-pyrimidone], the inhibition in vivo at 30 mg/kg in the experiment on Ethanol-Induced Ulcer (setting [2]) turned out to be 73%. Besides, the “Gastric Acid Secretion in Rats, Rate of inhibition” value in experiment [1] was found to be 36%.

`Cc1[nH]c(NC/C=C\COc2cccc(CN3CCCCC3)c2)nc(=O)c1Cc1ccccc1` [Ex. 14, 5-Benzyl-6-methyl-2-[4-<3-(I-piperidinomethyl)-phenoxy>-cis-2-butenylamino]-4-(1H)-pyrimidone]: in the experiment with Ethanol-Induced Ulcer (setting [2]), the inhibition in vivo at 30 mg/kg was determined as 87%.

`CCCc1[nH]c(NC/C=C\COc2cccc(CN3CCCCC3)c2)nc(=O)c1Cc1ccc2c(c1)OCO2` [Ex. 18]: the inhibition in vivo at 30 mg/kg in the experiment with Ethanol-Induced Ulcer (setting [2]) was 45%.

`CCCCCCCc1c(C)[nH]c(NC/C=C\COc2cccc(CN3CCCCC3)c2)nc1=O` [Ex. 7]: in the experiment with Ethanol-Induced Ulcer (setting [2]), the inhibition in vivo at 30 mg/kg was 61%.

On to `Cc1[nH]c(NC/C=C\COc2cc(CN3CCCCC3)ccn2)nc(=O)c1Cc1ccccc1` [Ex. 13], for which, in the experiment on Ethanol-Induced Ulcer (setting [2]), the inhibition in vivo at 30 mg/kg turned out to be 56%.

For `Cc1[nH]c(NC/C=C\COc2cccc(CN3CCCCC3)c2)nc(=O)c1C` [Ex. 3, 5,6-Dimethyl-2-[4-<3-(1-piperidinomethyl)-phenoxy>-cis-2-butenylamino]-4-(1H)-pyrimidone], the inhibition in vivo at 30 mg/kg with Ethanol-Induced Ulcer (setting [2]) came to 80%. Further, the “Gastric Acid Secretion in Rats, Rate of inhibition” value in experiment [1] turned out to be 70%.

Take `Cc1[nH]c(NC/C=C\COc2cc(CN3CCCCC3)ccn2)nc(=O)c1C` [Ex. 1, 5,6-Dimethyl-2-[4-<4-(1-piperidinomethyl)-pyridyl-2-oxy>-cis-2-butenylamino]-4-(1H)-pyrimidone]: the inhibition in vivo at 30 mg/kg in the experiment on Ethanol-Induced Ulcer (setting [2]) worked out at 65%. In addition, the “Gastric Acid Secretion in Rats, Rate of inhibition” value in experiment [1] is given as 59%.

Take `COc1ccc(Cc2c(C)[nH]c(NC/C=C\COc3cccc(CN4CCCCC4)c3)nc2=O)cc1` [Ex. 17, 5-(p-methoxybenzyl)-6-methyl-2-[4-<3-(1-piperidino-methyl)-phenoxy>-cis-2-butenylamino]-4-(1H)-pyrimidone]: the inhibition in vivo at 30 mg/kg in the experiment with Ethanol-Induced Ulcer (setting [2]) was determined as 78%.

On to `Cc1[nH]c(NC/C=C\COc2cc(CN3CCCCC3)ccn2)nc(=O)c1Cc1ccc2c(c1)OCO2` [Ex. 16, 5-(3,4-methylenedioxy)-benzyl-6-methyl-2-[4-<4-(1-piperidinomethyl)-pyridyl-2-oxy>-cis-2-butenylamino]-4-(1H)-pyrimidone], for which the inhibition in vivo at 30 mg/kg in the experiment on Ethanol-Induced Ulcer (setting [2]) is 58%.

Turning to `CN/C(=N/CCSCc1nc[nH]c1C)NC#N` [Cimetidine, reference compound], the inhibition in vivo at 30 mg/kg in the experiment on Ethanol-Induced Ulcer was -22.4%. Besides, in the experiment with Ethanol-Induced Ulcer (in words, as shown in Table II), the “inhibitory effect for damages with ethanol” value was “not observed”. In addition, the “Gastric Acid Secretion in Rats, Rate of inhibition” value in experiment [1] is reported as 70%.

Take `Cc1[nH]c(NC/C=C\COc2cc(CN3CCCCC3)ccn2)nc(=O)c1CCc1ccccc1` [Ex. 11, 5-Phenethyl-6-methyl-2-[4-<4-(1-piperidinomethyl)-pyridyl-2-oxy>-cis-2-butenylamino]-4-(1H)-pyrimidone]: the inhibition in vivo at 30 mg/kg in the experiment with Ethanol-Induced Ulcer (setting [2]) was 79%. The “Gastric Acid Secretion in Rats, Rate of inhibition” value in experiment [1] came to 47%.
